Drawing on the supplement of paper PMC10307832, this text covers relative viability for 6 cell lines.

Assay in all cases: relative viability (nuclei count vs DMSO), 5 days (fraction); higher = more cells survive
Compound in the test “Motesanib + Pemetrexed”: CC1(C)CNc2cc(NC(=O)c3cccnc3NCc3ccncc3)ccc21 [Motesanib] + Nc1nc2[nH]cc(CCc3ccc(C(=O)N[C@@H](CCC(=O)O)C(=O)O)cc3)c2c(=O)[nH]1 [Pemetrexed] (partner 0.2 µM)
The gist of the method: (§1)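 Lung cancer cell lines in 1536-well plates were dosed by pin tool the day after seeding, either with one drug alone or with a fixed anchor-drug dose plus five library-drug doses (not always all listed) in √10 steps. After 5 days, cells were fixed and their nuclei stained in one step (final 0.05% Triton X-100, 1% formaldehyde, 1 ug/ml Hoechst), then counted on 4× images. Relative viability is the nuclei count in treated wells divided by that in vehicle wells. Values are medians of duplicate plates.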

Compound in the test “Motesanib + Crizotinib”: CC1(C)CNc2cc(NC(=O)c3cccnc3NCc3ccncc3)ccc21 [Motesanib] + C[C@@H](Oc1cc(-c2cnn(C3CCNCC3)c2)cnc1N)c1c(Cl)ccc(F)c1Cl [Crizotinib] (partner 1 µM)
The gist of the method:
as §1

Compound in the test “Motesanib + Luminespib”: CC1(C)CNc2cc(NC(=O)c3cccnc3NCc3ccncc3)ccc21 [Motesanib] + CCNC(=O)c1noc(-c2cc(C(C)C)c(O)cc2O)c1-c1ccc(CN2CCOCC2)cc1 [Luminespib] (partner 0.01 µM)
An outline of the steps: as §1

Compound in test [1]: C[C@@]1(C(=O)Nc2ccc(F)nc2)CCCN1c1nc(Nc2cc(C3CC3)n[nH]2)c2cccn2n1 + COc1cccc2cc(-c3nc([C@H]4CC[C@H](C(=O)O)CC4)n4ncnc(N)c34)[nH]c12 [OSI-027] (partner 0.5 µM)
The gist of the method: as §1

Regarding CAL-12T, the relative viability is 1.17 with Motesanib + Pemetrexed (first compound 0.01 µM); 1.17 with Motesanib + Pemetrexed (first compound 0.03162 µM); 1.19 with Motesanib + Pemetrexed (first compound 0.1 µM); 1.16 with Motesanib + Pemetrexed (first compound 0.3162 µM); 1.08 with Motesanib + Pemetrexed (first compound 1 µM); 0.627 with Motesanib + Crizotinib (first compound 0.01 µM). Also, the relative viability came to 0.56 with Motesanib + Crizotinib (first compound 0.03162 µM); 0.664 in the test with Motesanib + Crizotinib (first compound 0.1 µM); 0.758 with Motesanib + Crizotinib (first compound 0.3162 µM); 0.559 in the test with Motesanib + Crizotinib (first compound 1 µM); 0.371 with Motesanib + Luminespib (first compound 0.01 µM); 0.375 in the test with Motesanib + Luminespib (first compound 0.03162 µM). Besides, the relative viability was determined as 0.195 with Motesanib + Luminespib (first compound 0.1 µM); 0.567 in the test with Motesanib + Luminespib (first compound 0.3162 µM); 0.175 in the test with Motesanib + Luminespib (first compound 1 µM); 0.486 in test [1] (first compound 0.04 µM); 0.382 in test [1] (first compound 0.1265 µM); 0.292 in test [1] (first compound 0.4 µM). In addition, the relative viability in test [1] (first compound 1.265 µM) turned out to be 0.275.

In the case of COR-L23, the relative viability with Motesanib + Pemetrexed (first compound 0.01 µM) was 0.186; with Motesanib + Pemetrexed (first compound 0.03162 µM) it was 0.198; in the test with Motesanib + Pemetrexed (first compound 0.1 µM), 0.187; with Motesanib + Pemetrexed (first compound 0.3162 µM) it was 0.197; in the test with Motesanib + Pemetrexed (first compound 1 µM) it was 0.184; with Motesanib + Crizotinib (first compound 0.01 µM), 0.512. Moreover, the relative viability with Motesanib + Crizotinib (first compound 0.03162 µM) was 0.639; with Motesanib + Crizotinib (first compound 0.1 µM) it was 0.703; in the test with Motesanib + Crizotinib (first compound 0.3162 µM), 0.643; in the test with Motesanib + Crizotinib (first compound 1 µM), 0.547; with Motesanib + Luminespib (first compound 0.01 µM) it was 0.605; in the test with Motesanib + Luminespib (first compound 0.03162 µM), 0.694. The relative viability in the test with Motesanib + Luminespib (first compound 0.1 µM) came to 0.728; with Motesanib + Luminespib (first compound 0.3162 µM) it was 0.665; in the test with Motesanib + Luminespib (first compound 1 µM) it was 0.738; in test [1] (first compound 0.04 µM), 0.656; in test [1] (first compound 0.1265 µM) it was 0.53; in test [1] (first compound 0.4 µM), 0.518. In test [1] (first compound 1.265 µM), the relative viability stood at 0.461.

Take COR-L 105: the relative viability came out at 1.19 in the test with Motesanib + Pemetrexed (first compound 0.01 µM); 0.96 with Motesanib + Pemetrexed (first compound 0.03162 µM); 1.34 in the test with Motesanib + Pemetrexed (first compound 0.1 µM); 1.12 in the test with Motesanib + Pemetrexed (first compound 0.3162 µM); 1.33 with Motesanib + Pemetrexed (first compound 1 µM); 0.981 in the test with Motesanib + Crizotinib (first compound 0.01 µM). In addition, the relative viability came to 0.739 in the test with Motesanib + Crizotinib (first compound 0.03162 µM); 0.743 with Motesanib + Crizotinib (first compound 0.1 µM); 0.73 with Motesanib + Crizotinib (first compound 0.3162 µM); 0.756 with Motesanib + Crizotinib (first compound 1 µM); 0.737 with Motesanib + Luminespib (first compound 0.01 µM); 0.894 in the test with Motesanib + Luminespib (first compound 0.03162 µM). The relative viability with Motesanib + Luminespib (first compound 0.1 µM) was 0.896; with Motesanib + Luminespib (first compound 0.3162 µM), 0.73; with Motesanib + Luminespib (first compound 1 µM), 0.843; in test [1] (first compound 0.04 µM), 0.627; in test [1] (first compound 0.1265 µM) it was 0.377; in test [1] (first compound 0.4 µM) it was 0.31. For the same cell line, the relative viability in test [1] (first compound 1.265 µM) was 0.408.

Take Calu-6: the relative viability with Motesanib + Crizotinib (first compound 0.01 µM) turned out to be 0.794; in the test with Motesanib + Crizotinib (first compound 0.03162 µM), 0.744; with Motesanib + Crizotinib (first compound 0.1 µM), 0.78; in the test with Motesanib + Crizotinib (first compound 0.3162 µM), 0.758; in the test with Motesanib + Crizotinib (first compound 1 µM), 0.783.

Turning to ChaGo-K-1, the relative viability with Motesanib + Pemetrexed (first compound 0.01 µM) turned out to be 0.262; with Motesanib + Pemetrexed (first compound 0.03162 µM), 0.249; in the test with Motesanib + Pemetrexed (first compound 0.1 µM), 0.227; with Motesanib + Pemetrexed (first compound 0.3162 µM), 0.235; with Motesanib + Pemetrexed (first compound 1 µM) it was 0.237; in the test with Motesanib + Crizotinib (first compound 0.03162 µM) it was 1.16. In addition, the relative viability in the test with Motesanib + Crizotinib (first compound 0.1 µM) came to 1.1; with Motesanib + Crizotinib (first compound 0.3162 µM) it was 1.18; with Motesanib + Crizotinib (first compound 1 µM), 1.15; with Motesanib + Luminespib (first compound 0.01 µM), 0.525; with Motesanib + Luminespib (first compound 0.03162 µM), 0.656; in the test with Motesanib + Luminespib (first compound 0.1 µM), 0.589. The relative viability was determined as 0.552 with Motesanib + Luminespib (first compound 0.3162 µM); 0.588 with Motesanib + Luminespib (first compound 1 µM); 0.402 in test [1] (first compound 0.04 µM); 0.252 in test [1] (first compound 0.1265 µM); 0.317 in test [1] (first compound 0.4 µM); 0.291 in test [1] (first compound 1.265 µM).

With EBC-1, the relative viability with Motesanib + Crizotinib (first compound 0.01 µM) is 0.178; with Motesanib + Crizotinib (first compound 0.03162 µM) it was 0.19; in the test with Motesanib + Crizotinib (first compound 0.1 µM) it was 0.205; with Motesanib + Crizotinib (first compound 0.3162 µM), 0.193; with Motesanib + Crizotinib (first compound 1 µM), 0.181.
